Assays:
PTPN1 (i.e., PTP1B) = target: T1, PTPN1 (i.e., PTP1B) (Homo sapiens, UniProt P18031); assay: Phosphatase activity assay (DiFMUP substrate), PTP1B; format: biochemical; conditions: compounds binned ≤1 uM or >1 uM
T1 sequence (P18031 1-435): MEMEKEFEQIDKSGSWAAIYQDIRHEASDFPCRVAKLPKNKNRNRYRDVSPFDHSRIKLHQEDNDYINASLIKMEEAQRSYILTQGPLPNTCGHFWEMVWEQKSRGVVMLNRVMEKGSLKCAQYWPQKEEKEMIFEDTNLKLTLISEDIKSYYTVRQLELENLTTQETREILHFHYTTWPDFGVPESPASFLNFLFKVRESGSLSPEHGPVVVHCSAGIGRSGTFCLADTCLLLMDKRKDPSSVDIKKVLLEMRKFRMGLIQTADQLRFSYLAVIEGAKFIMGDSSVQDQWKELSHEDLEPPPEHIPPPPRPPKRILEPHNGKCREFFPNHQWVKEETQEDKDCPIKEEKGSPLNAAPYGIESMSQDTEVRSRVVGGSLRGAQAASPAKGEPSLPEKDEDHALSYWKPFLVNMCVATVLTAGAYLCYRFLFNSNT
Method in brief: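 Read-out is continuous fluorescence of DiFMU (360 nm excitation, 450 nm emission) over about 15-30 minutes, with DiFMUP substrate at the enzyme's independently determined Km (PTPN2 approx. 45 μM final). Buffer: 50 mM HEPES pH 7.5, 150 mM NaCl, 0.5 mM EDTA, 1 mM DTT, 0.001% Tween-20, room temperature; initial rates versus 10-point dilution fitted for IC50, at least duplicate.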

PTPN2 (i.e., TC-PTP) = target: T2, PTPN2 (i.e., TC-PTP) (Homo sapiens, UniProt P17706); assay: Phosphatase activity assay (DiFMUP substrate), PTPN2; format: biochemical; conditions: compounds binned ≤1 uM or >1 uM
T2 sequence (P17706 1-415): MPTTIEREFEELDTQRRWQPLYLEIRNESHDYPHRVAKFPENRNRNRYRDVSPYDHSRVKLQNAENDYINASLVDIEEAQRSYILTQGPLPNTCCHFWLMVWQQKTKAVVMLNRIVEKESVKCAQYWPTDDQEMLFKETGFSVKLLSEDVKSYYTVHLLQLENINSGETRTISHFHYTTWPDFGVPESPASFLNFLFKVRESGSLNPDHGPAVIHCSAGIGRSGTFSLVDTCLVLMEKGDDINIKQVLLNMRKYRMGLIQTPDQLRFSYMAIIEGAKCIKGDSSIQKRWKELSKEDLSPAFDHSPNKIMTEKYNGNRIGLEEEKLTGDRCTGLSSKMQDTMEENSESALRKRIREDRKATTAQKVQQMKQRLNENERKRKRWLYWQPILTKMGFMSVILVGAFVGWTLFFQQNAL
Method in brief: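 Using a Km-level DiFMUP substrate and 0.025 ng/ul PTPN2, phosphatase activity is tracked by DiFMU emission at 450 nm over about 15–30 minutes. Initial rates at ten inhibitor concentrations give IC50 by four-parameter fitting.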

Row | IC50 (PTPN1 (i.e., PTP1B)) [nM] | IC50 (PTPN2 (i.e., TC-PTP)) [nM] | SMILES
1 | ≤ 1000 | ≤ 1000 | O=C1CN(c2c(O)ccc(C3=CCN(S(=O)(=O)C4CC4)C3)c2F)S(=O)(=O)N1 [Compound 238, 5-(3-(1-(cyclopropylsulfonyl)-2,5-dihydro-1H-pyrrol-3-yl)-2-fluoro-6-hydroxyphenyl)-1,2,5-thiadiazolidin-3-one 1,1-dioxide]
2 | ≤ 1000 | ≤ 1000 | CO[C@H]1CC[C@H](n2cc(-c3ccc(O)c(N4CC(=O)NS4(=O)=O)c3F)cn2)CC1 [Compound 426, 5-(2-fluoro-6-hydroxy-3-(1-((1r,4r)-4-methoxycyclohexyl)-1H-pyrazol-4-yl)phenyl)-1,2,5-thiadiazolidin-3-one 1,1-dioxide]
3 | > 1000 | > 1000 | Cc1cc(O)c(N2CC(=O)NS2(=O)=O)cc1-c1cnn(C)c1 [Compound 358, 5-(2-hydroxy-4-methyl-5-(1-methyl-1H-pyrazol-4-yl)phenyl)-1,2,5-thiadiazolidin-3-one 1,1-dioxide]
4 | ≤ 1000 | ≤ 1000 | O=C1CN(c2c(O)ccc(C3=CCN(C4CC4)C3)c2F)S(=O)(=O)N1 [Compound 296, 5-(3-(1-cyclopropyl-2,5-dihydro-1H-pyrrol-3-yl)-2-fluoro-6-hydroxyphenyl)-1,2,5-thiadiazolidin-3-one 1,1-dioxide]
5 | ≤ 1000 | ≤ 1000 | O=C1CN(c2c(O)ccc(-c3c[nH]nc3F)c2F)S(=O)(=O)N1 [Compound 507, 5-(2-fluoro-3-(3-fluoro-1H-pyrazol-4-yl)-6-hydroxyphenyl)-1,2,5-thiadiazolidin-3-one 1,1-dioxide]
6 | ≤ 1000 | ≤ 1000 | O=C1CN(c2c(O)ccc(-c3cnc(C4CC4)[nH]3)c2F)S(=O)(=O)N1 [Compound 406, 5-(3-(2-cyclopropyl-1H-imidazol-5-yl)-2-fluoro-6-hydroxyphenyl)-1,2,5-thiadiazolidin-3-one 1,1-dioxide]
7 | ≤ 1000 | ≤ 1000 | O=C1CN(c2c(O)ccc(-c3cc(C4CC4C(F)F)n[nH]3)c2F)S(=O)(=O)N1 (stereo not shown) [Compound 492, 5-(3-(3-(2-(difluoromethyl)cyclopropyl)-1H-pyrazol-5-yl)-2-fluoro-6-hydroxyphenyl)-1,2,5-thiadiazolidin-3-one 1,1-dioxide]
8 | ≤ 1000 | > 1000 | Nc1nc2c(-c3ccc(O)c(N4CC(=O)NS4(=O)=O)c3F)ccc(F)c2s1 [Compound 151, 5-(3-(2-amino-7-fluorobenzo[d]thiazol-4-yl)-2-fluoro-6-hydroxyphenyl)-1,2,5-thiadiazolidin-3-one 1,1-dioxide]
9 | ≤ 1000 | ≤ 1000 | O=C1CN(c2c(O)ccc(C3=CCNC3)c2F)S(=O)(=O)N1 [Compound 489, 5-(3-(2,5-dihydro-1H-pyrrol-3-yl)-2-fluoro-6-hydroxyphenyl)-1,2,5-thiadiazolidin-3-one 1,1-dioxide]
10 | ≤ 1000 | ≤ 1000 | CC(C)Cn1cc(-c2ccc(O)c(N3CC(=O)NS3(=O)=O)c2F)cn1 [Compound 149, 5-(2-fluoro-6-hydroxy-3-(1-isobutyl-1H-pyrazol-4-yl)phenyl)-1,2,5-thiadiazolidin-3-one 1,1-dioxide]
11 | ≤ 1000 | ≤ 1000 | O=C1CN(c2c(O)ccc(C3CCC(NS(=O)(=O)C4CC4)CC3)c2F)S(=O)(=O)N1 (stereo not shown) [Compound 450, N-(4-(3-(1,1-dioxido-4-oxo-1,2,5-thiadiazolidin-2-yl)-2-fluoro-4-hydroxyphenyl)cyclohexyl)cyclopropanesulfonamide]
12 | ≤ 1000 | ≤ 1000 | N#C[C@H]1CC[C@@H](n2cc(-c3ccc(O)c(N4CC(=O)NS4(=O)=O)c3F)cn2)CC1 [Compound 280, (1s,4s)-4-(4-(3-(1,1-dioxido-4-oxo-1,2,5-thiadiazolidin-2-yl)-2-fluoro-4-hydroxyphenyl)-1H-pyrazol-1-yl)cyclohexane-1-carbonitrile]
13 | ≤ 1000 | ≤ 1000 | O=C1CN(c2c(O)ccc(-c3cn(CC(F)F)nc3F)c2F)S(=O)(=O)N1 [Compound 488, 5-(3-(1-(2,2-difluoroethyl)-3-fluoro-1H-pyrazol-4-yl)-2-fluoro-6-hydroxyphenyl)-1,2,5-thiadiazolidin-3-one 1,1-dioxide]

The next lines start with the compound.

Row | SMILES | IC50 (PTPN1 (i.e., PTP1B)) [nM] | IC50 (PTPN2 (i.e., TC-PTP)) [nM]
14 | O=C1CN(c2c(O)ccc(C3=CC4CCC3N4)c2F)S(=O)(=O)N1 (stereo not shown) [Compound 475, 5-(3-(7-azabicyclo[2.2.1]hept-2-en-2-yl)-2-fluoro-6-hydroxyphenyl)-1,2,5-thiadiazolidin-3-one 1,1-dioxide] | ≤ 1000 | > 1000
15 | CO[C@H]1CC[C@@H](n2cc(-c3ccc(O)c(N4CC(=O)NS4(=O)=O)c3F)cn2)CC1 [Compound 383, 5-(2-fluoro-6-hydroxy-3-(1-((1s,4s)-4-methoxycyclohexyl)-1H-pyrazol-4-yl)phenyl)-1,2,5-thiadiazolidin-3-one 1,1-dioxide] | ≤ 1000 | ≤ 1000
16 | CN1CC2(CCC(n3cc(-c4ccc(O)c(N5CC(=O)NS5(=O)=O)c4F)cn3)CC2)C1 [Compound 271, 5-(2-fluoro-6-hydroxy-3-(1-(2-methyl-2-azaspiro[3.5]nonan-7-yl)-1H-pyrazol-4-yl)phenyl)-1,2,5-thiadiazolidin-3-one 1,1-dioxide] | ≤ 1000 | ≤ 1000
17 | O=C1CN(c2c(O)ccc(-c3cnn(Cc4ccc(F)cc4)c3)c2F)S(=O)(=O)N1 [Compound 186, 5-(2-fluoro-3-(1-(4-fluorobenzyl)-1H-pyrazol-4-yl)-6-hydroxyphenyl)-1,2,5-thiadiazolidin-3-one 1,1-dioxide] | ≤ 1000 | ≤ 1000
18 | CN1CCC(Nc2cccc(-c3ccc(O)c(N4CC(=O)NS4(=O)=O)c3F)c2)CC1 [Compound 225, 5-(2-fluoro-4-hydroxy-3′-((1-methylpiperidin-4-yl)amino)-[1,1′-biphenyl]-3-yl)-1,2,5-thiadiazolidin-3-one 1,1-dioxide] | ≤ 1000 | ≤ 1000
19 | O=C1CN(c2c(O)ccc(-c3cc(C4=CCOC4)n[nH]3)c2F)S(=O)(=O)N1 [Compound 362, 5-(3-(3-(2,5-dihydrofuran-3-yl)-1H-pyrazol-5-yl)-2-fluoro-6-hydroxyphenyl)-1,2,5-thiadiazolidin-3-one 1,1-dioxide] | ≤ 1000 | ≤ 1000
20 | O=C1CN(c2c(O)ccc(C3=CCN(S(=O)(=O)C4CC4)CC3)c2F)S(=O)(=O)N1 [Compound 355, 5-(3-(1-(cyclopropylsulfonyl)-1,2,3,6-tetrahydropyridin-4-yl)-2-fluoro-6-hydroxyphenyl)-1,2,5-thiadiazolidin-3-one 1,1-dioxide] | ≤ 1000 | ≤ 1000
21 | CN(C)C1(Cn2cc(-c3ccc(O)c(N4CC(=O)NS4(=O)=O)c3F)cn2)CCC1 [Compound 430, 5-(3-(1-((1-(dimethylamino)cyclobutyl)methyl)-1H-pyrazol-4-yl)-2-fluoro-6-hydroxyphenyl)-1,2,5-thiadiazolidin-3-one 1,1-dioxide] | ≤ 1000 | ≤ 1000
22 | O=C1CN(c2c(O)ccc(-c3cnn(C4CCC(O)CC4)c3)c2F)S(=O)(=O)N1 (stereo not shown) [Compound 408, 5-(2-fluoro-6-hydroxy-3-(1-(4-hydroxycyclohexyl)-1H-pyrazol-4-yl)phenyl)-1,2,5-thiadiazolidin-3-one 1,1-dioxide] | ≤ 1000 | ≤ 1000
23 | Cn1cnc(-c2ccc(O)c(N3CC(=O)NS3(=O)=O)c2F)n1 [Compound 237, 5-(2-fluoro-6-hydroxy-3-(1-methyl-1H-1,2,4-triazol-3-yl)phenyl)-1,2,5-thiadiazolidin-3-one 1,1-dioxide] | ≤ 1000 | ≤ 1000

From patent publication US20240398828A1, “HETERO-ATOM CONTAINING COMPOUNDS AND USES THEREOF” (Kumquat Biosciences Inc., priority 2021, published 2024)
